This test addresses T1, AMPK complex 1 (containing alpha1beta1gamma1) (Homo sapiens, UniProt Q13131+Q9Y478).
T1 construct: GST (Glutathion S transferase) (N); made in house; host or cells: baculovirus; virus made in Sf9, expression in High Five cells
Nature of the test: In vitro AMPK activation assay (ADP-Glo Kinase Assay). Format: biochemical. The conditions noted are these: 30 μM ATP, 1 μM peptide, 60 min, room temperature. The text has this: Activated AMPK complex 1 (containing alpha1beta1gamma1) was obtained from baculovirus expression system. The gene encoding AMPK alpha1 was cloned into the pACG2T vector (BD Biosciences) to obtain a N-terminal Glutathion S transferase (GST)-fusion protein. The genes encoding AMPK beta 1 and gamma1 were cloned into the p2Bac dual multiple cloning site vector (Invitrogen) with beta1 under the control of the p10 promoter and gamma1 under the control of the PH promoter. The transfer vectors containing AMPK were co-transfected individually with AcPNV BacMagic-3 DNA (EMD Millipore) in Sf9 cells and the recombinant baculoviruses were harvested after 5 days, followed by 3 rounds of amplification of the virus stock in Sf9 cells. AMPK (alpha1beta1gamma1) was expressed in High Five 5 cells by co-infection of recombinant alpha1 virus and recombinant beta1/gamma1 virus for 72 h at 27° C. Cells were harvested by centrifugation and lysed by 3 freeze/thaw cycles in PBS with 10% glycerol and protease inhibitor cocktail (Roche). After centrifugation AMPK a1b1g1 in the supernatant was captured by immobilized glutathione (GE Healthcare), impurities were washed away with PBS and AMPK alpha1beta1gamma1 was eluted with PBS containing 20 mM reduced gluthathione. The protein buffer was then exchanged to PBS with 10% glycerol and protein concentration was determined by UV absorbance.
The white 384-well Optiplates (cat.no. 6007299) were purchased from PerkinElmer. The V9101 ADP-Glo Kinase Assay and ultra pure ATP (V915A) was purchased from Promega. The substrate for AMPK (NH2-HMRSAMSGLHLVKRR_CONH2) was purchased from Upstate (12-355).
Compounds were tested in either serial dilutions or single dose concentrations. The serial compound dilutions were prepared in 100% DMSO automatically. The final DMSO concentration in the assay was 0.1%.
The Compound Stock Solutions were 10 mM in 100% DMSO. The compounds were solubilised at room temperature.
In the 384-well plates 1.25 ul of test compound in assay buffer was mixed with 1.25 ul of AMPK and 1.25 μl of the peptide (final concentration of 1 μM) and 1.25 μl of ATP (final concentration of 30 μM), both dissolved in assay buffer. This step was followed by an incubation time of 60 min. Then 5 μl of ADP Glo Reagent was added. This was followed by 40 min of incubation. Then 10 μl of Kinase Detection Reagent was admixed. The plates were sealed and after an incubation period of 30 min, the luminescence signal was measured in an Envision reader. All incubation steps were accomplished at room temperature.
Each assay microtiter plate contained wells with vehicle controls instead of compound (0.1% DMSO in water) as reference for the low signal (100% CTL, low signal), and wells with serial dilutions of AMP (final 30 μM) as reference for high signals.
The luminescence signal generated was proportional to the ADP concentration produced and was correlated with AMPK activity. The analysis of the data was performed by the calculation of the percentage of ATP consumption of AMPK in the presence of the test compound compared to the consumption of ATP in the presence of AMPK without compound. (RLU(sample)/RLU(low control))*100[RLU=relative luminescence units]
An activator of the AMPK enzyme gave values above 100% CTL.
EC50 values based on dose response curves are calculated with the XIFIT software using the 4 Parameter Logistic Model or Sigmoidal Dose-Response Model.
(ADP-Glo first removes unused ATP, then detects ADP through luciferase.)

T1 sequence (Q13131 whole entry): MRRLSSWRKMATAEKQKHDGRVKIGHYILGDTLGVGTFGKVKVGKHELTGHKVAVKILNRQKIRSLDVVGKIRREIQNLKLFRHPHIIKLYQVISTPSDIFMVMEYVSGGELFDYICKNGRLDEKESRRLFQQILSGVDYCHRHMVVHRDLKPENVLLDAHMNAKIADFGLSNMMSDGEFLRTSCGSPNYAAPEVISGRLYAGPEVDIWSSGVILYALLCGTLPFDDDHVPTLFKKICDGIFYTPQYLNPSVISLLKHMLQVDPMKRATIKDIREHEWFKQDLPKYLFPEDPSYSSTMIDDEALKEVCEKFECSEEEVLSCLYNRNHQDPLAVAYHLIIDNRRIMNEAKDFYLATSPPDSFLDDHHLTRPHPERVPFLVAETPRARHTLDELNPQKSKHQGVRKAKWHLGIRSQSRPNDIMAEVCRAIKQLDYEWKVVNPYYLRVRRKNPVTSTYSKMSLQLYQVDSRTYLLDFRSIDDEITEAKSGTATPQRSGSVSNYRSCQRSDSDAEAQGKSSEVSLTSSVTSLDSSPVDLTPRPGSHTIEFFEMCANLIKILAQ
T1 sequence (Q9Y478 whole entry): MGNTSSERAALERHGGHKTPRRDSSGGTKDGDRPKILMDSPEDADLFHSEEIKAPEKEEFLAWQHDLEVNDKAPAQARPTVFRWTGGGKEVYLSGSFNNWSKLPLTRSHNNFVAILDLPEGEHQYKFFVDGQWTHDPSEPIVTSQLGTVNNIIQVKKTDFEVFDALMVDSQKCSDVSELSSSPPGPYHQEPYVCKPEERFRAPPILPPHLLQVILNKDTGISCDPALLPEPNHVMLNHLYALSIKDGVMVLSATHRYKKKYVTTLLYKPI
T1 sequence (P54619 whole entry partner): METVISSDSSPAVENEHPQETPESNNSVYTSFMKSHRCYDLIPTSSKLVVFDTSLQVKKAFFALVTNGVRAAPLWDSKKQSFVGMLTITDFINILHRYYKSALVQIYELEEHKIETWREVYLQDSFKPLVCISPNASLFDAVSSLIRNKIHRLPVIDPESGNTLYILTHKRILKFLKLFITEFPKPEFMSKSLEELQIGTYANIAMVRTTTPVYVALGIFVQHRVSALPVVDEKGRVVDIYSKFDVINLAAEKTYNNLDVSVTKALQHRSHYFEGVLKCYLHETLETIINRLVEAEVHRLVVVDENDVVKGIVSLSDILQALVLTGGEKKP

For `CCS(C)(=O)=Nc1ccc(-c2ccc(-c3nc4[nH]c(O[C@@H]5CO[C@H]6[C@@H]5OC[C@H]6O)nc4cc3Cl)cc2)cc1` (stereo partly drawn) [Example 13, N-(4′-(6-Chloro-2-((3R,3aR,6R,6aR)-6-hydroxyhexahydrofuro[3,2-b]furan-3-yloxy)-3H-imidazo[4,5-b]pyridin-5-yl)biphenyl-4-yl)-S-ethyl-S-methylsulfoximide], the midpoint of the response, the EC50, lay at 4 nM. `CS(C)(=O)=NCc1cc(-c2ccc(-c3nc4[nH]c(O[C@@H]5CO[C@H]6[C@@H]5OC[C@H]6O)nc4cc3Cl)cc2)ccn1` [Example 53]: a half-maximal response (EC50) required 56 nM. Regarding `CS(C)(=O)=Nc1ccc(-c2ccc(-c3nc4[nH]c(O[C@@H]5CO[C@H]6[C@@H]5OC[C@H]6O)nc4cc3Cl)cc2)nc1` [Example 30, N-(2-(4-(6-Chloro-2-((3R,3aR,6R,6aR)-6-hydroxyhexahydrofuro[3,2-b]furan-3-yloxy)-3H-imidazo[4,5-b]pyridin-5-yl)phenyl)pyridin-5-yl)-S,S-dimethylsulfoximide], a half-maximal response (EC50) required 2 nM. As for `CS(C)(=O)=NCc1cccc(-c2ccc(-c3nc4[nH]c(O[C@@H]5CO[C@H]6[C@@H]5OC[C@H]6O)nc4cc3Cl)cc2)c1` [Example 38, N-(4′-(6-Chloro-2-((3R,3aR,6R,6aR)-6-hydroxyhexahydrofuro[3,2-b]furan-3-yloxy)-3H-imidazo[4,5-b]pyridin-5-yl)biphenyl-3-ylmethyl)-S,S-dimethylsulfoximide], the figure is 704 nM. As for `CC(C)S(C)(=O)=Nc1ccc(-c2ccc(-c3nc4[nH]c(O[C@@H]5CO[C@H]6[C@@H]5OC[C@H]6O)nc4cc3Cl)cc2)cc1` (stereo partly drawn) [Example 18, N-(4′-(6-Chloro-2-((3R,3aR,6R,6aR)-6-hydroxyhexahydrofuro[3,2-b]furan-3-yloxy)-3H-imidazo[4,5-b]pyridin-5-yl)biphenyl-4-yl)-S-isopropyl-S-methylsulfoximide], the figure is 34 nM. In the case of `CS(C)(=O)=Nc1cccc(-c2ccc(-c3nc4[nH]c(O[C@@H]5CO[C@H]6[C@@H]5OC[C@H]6O)nc4cc3Cl)cc2)n1` [Example 47, N-(6-{4-[6-Chloro-2-((3R,3aR,6R,6aR)-6-hydroxyhexahydrofuro[3,2-b]furan-3-yloxy)-3H-imidazo[4,5-b]pyridin-5-yl]-phenyl}-pyridin-2-yl)-S,S-dimethylsulfoximide], a half-maximal effect (EC50) was put at 67 nM.

On to `C[S@](=O)(=Nc1ccc(-c2nc3[nH]c(O[C@@H]4CO[C@H]5[C@@H]4OC[C@H]5O)nc3cc2Cl)cc1)c1ccccc1` [Example 12, (R)-N-(4-(6-Chloro-2-((3R,3aR,6R,6aR)-6-hydroxyhexahydrofuro[3,2-b]furan-3-yloxy)-3H-imidazo[4,5-b]pyridin-5-yl)phenyl)-S-methyl-S-phenylsulfoximide], for which the EC50 (in general, the midpoint of the concentration-response curve) was 581 nM. The molecule `CS(C)(=O)=NC(=O)c1ccc(-c2ccc(-c3nc4[nH]c(O[C@@H]5CO[C@H]6[C@@H]5OC[C@H]6O)nc4cc3Cl)cc2)cc1` [Example 6, N-4′-(6-Chloro-2-((3R,3aR,6R,6aR)-6-hydroxyhexahydrofuro[3,2-b]furan-3-yloxy)-3H-imidazo[4,5-b]pyridin-5-yl)biphenyl-4-carbonyl-S,S-dimethylsulfoximide] came in with an EC50 of 2 nM.

Turning to `CS(C)(=O)=Nc1cnc(-c2ccc(-c3nc4[nH]c(O[C@@H]5CO[C@H]6[C@@H]5OC[C@H]6O)nc4cc3Cl)cc2)cn1` [Example 39, N-(5-{4-[6-Chloro-2-((3R,3aR,6R,6aR)-6-hydroxyhexahydrofuro[3,2-b]furan-3-yloxy)-3H-imidazo[4,5-b]pyridin-5-yl]-phenyl}-pyrazin-2-yl)-S,S-dimethylsulfoximide], the response was half-maximal at 8 nM (EC50).

With `CS(C)(=O)=Nc1ccc(-c2ccc(-c3nc4[nH]c(O[C@@H]5CO[C@H]6[C@@H]5OC[C@H]6O)nc4cc3Cl)cn2)cc1` [Example 32, N-(4-{5-[6-Chloro-2-((3R,3aR,6R,6aR)-6-hydroxyhexahydrofuro[3,2-b]furan-3-yloxy)-3H-imidazo[4,5-b]pyridin-5-yl]-pyridin-2-yl}-phenyl)-S,S-dimethylsulfoximide], the EC50 stood at 13 nM. The value for `CS(C)(=N)=Nc1ccc(-c2nc3[nH]c(O[C@@H]4CO[C@H]5[C@@H]4OC[C@H]5O)nc3cc2Cl)cc1` [Example 56, N-(4-(6-Chloro-2-((3R,3aR,6R,6aR)-6-hydroxyhexahydrofuro[3,2-b]furan-3-yloxy)-3H-imidazo[4,5-b]pyridin-5-yl)phenyl)-S,S-dimethyl-sulfondiimine] was 41 nM; that for `N=S1(=O)CCN(c2ccc(-c3nc4[nH]c(O[C@@H]5CO[C@H]6[C@@H]5OC[C@H]6O)nc4cc3Cl)cc2)CC1` [Example 4] was 22 nM; that for `CS(=O)(=NC(=O)c1ccc(-c2nc3[nH]c(O[C@@H]4CO[C@H]5[C@@H]4OC[C@H]5O)nc3cc2Cl)cc1)C1CCOCC1` (stereo partly drawn) [Example 20, N-4-(6-Chloro-2-((3R,3aR,6R,6aR)-6-hydroxyhexahydrofuro[3,2-b]furan-3-yloxy)-3H-imidazo[4,5-b]pyridin-5-yl)benzoyl-S-methyl-S-(tetrahydro-2H-pyran-4-yl)-sulfoximine] was 776 nM. As for `CN=S1(=O)CC2CN(c3ccc(-c4nc5[nH]c(O[C@@H]6CO[C@H]7[C@@H]6OC[C@H]7O)nc5cc4Cl)cc3)CC2C1` (stereo partly drawn) [Example 57, (3R,3aR,6R,6aR)-6-{6-Chloro-5-[4-(2-methylimino-2-oxo-hexahydro-2λ^6-thieno[3,4-c]pyrrol-5-yl)-phenyl]-3H-imidazo[4,5-b]pyridin-2-yloxy}-hexahydro-furo[3,2-b]furan-3-ol], the figure is 118 nM. On to `CS(C)(=N)=Nc1ccc(-c2ccc(-c3nc4[nH]c(O[C@@H]5CO[C@H]6[C@@H]5OC[C@H]6O)nc4cc3Cl)cc2)cc1` [Example 17, N-(4′-(6-Chloro-2-((3R,3aR,6R,6aR)-6-hydroxyhexahydrofuro[3,2-b]furan-3-yloxy)-3H-imidazo[4,5-b]pyridin-5-yl)biphenyl-4-yl)-S,S-dimethyl-sulfondiimine], for which the response was half-maximal at 1 nM (EC50). As for `O=C(N=S1(=O)CCCCC1)c1ccc(-c2nc3[nH]c(O[C@@H]4CO[C@H]5[C@@H]4OC[C@H]5O)nc3cc2Cl)cc1` [Example 24, 4-[6-Chloro-2-((3R,3aR,6R,6aR)-6-hydroxy-hexahydro-furo[3,2-b]furan-3-yloxy)-3H-imidazo[4,5-b]pyridin-5-yl]-N-(1-oxo-hexahydro-1λ6-thiopyran-1-ylidene)-benzamide], the figure is 215 nM; as for `CS(C)(=O)=Nc1cccc(-c2ccc(-c3nc4[nH]c(O[C@@H]5CO[C@H]6[C@@H]5OC[C@H]6O)nc4cc3Cl)cc2)c1` [Example 14, N-(4′-(6-Chloro-2-((3R,3aR,6R,6aR)-6-hydroxyhexahydrofuro[3,2-b]furan-3-yloxy)-3H-imidazo[4,5-b]pyridin-5-yl)biphenyl-3-yl)-S,S-dimethylsulfoximide], 6 nM. `CS(=N)(=O)[C@H]1CC[C@@H](c2ccc(-c3nc4[nH]c(O[C@@H]5CO[C@H]6[C@@H]5OC[C@H]6O)nc4cc3Cl)cc2)CC1` (stereo partly drawn) [Example 33, cis-(3R,3aR,6R,6aR)-6-(6-Chloro-5-[4-{4-(S-methylsulfonimidoyl)-cyclohexyl}-phenyl]-3H-imidazo[4,5-b]pyridin-2-yloxy)-hexahydro-furo[3,2-b]furan-3-ol] yielded an EC50 of 265 nM. This EC50 lies about 44-fold higher than the previous one. As for `CS(C)(=O)=NCc1ccc(-c2ccc(-c3nc4[nH]c(O[C@@H]5CO[C@H]6[C@@H]5OC[C@H]6O)nc4cc3Cl)cc2)nc1` [Example 48, N-(6-(4-(6-Chloro-2-((3R,3aR,6R,6aR)-6-hydroxyhexahydrofuro[3,2-b]furan-3-yloxy)-3H-imidazo[4,5-b]pyridin-5-yl)phenyl)pyridin-3-ylmethyl)-S,S-dimethylsulfoximide], the figure is 16 nM.

The values are drawn from patent US9492436B2, “Azabenzimidazole derivatives” (Boehringer Ingelheim International GmbH, priority 2013, dated 2016).
